Laboratory results from US12156886B2, “Methods of increasing blood oxygen saturation” (ThermoLife International, LLC, priority 2020, dated 2024).

Columns and labels:
[1] = system: NO-induced methemoglobinemia; assay: NO-induced methemoglobinemia and lung inflammation after accidental NO exposure, H2 inhalation and magnesium ingestion (Example 12); format: in vivo, human
From the text: During the course of developing the described methods for producing NO for a more affordable, effective, and safe source of NO therapy, one of the inventors accidentally exposed themself both chronically and acutely to NO gas. […] Since onset of symptoms, the inventor inhaled H2 gas, produced by reacting elemental magnesium and citric acid in a glass of water.
Their condition and SpO2 worsened throughout the day, and later that night they were admitted in the emergency room at a hospital with a recorded SpO2 of 45%. The hospital verified that the inventor developed NO-induced lung inflammation by X-rays and a CAT scan. Upon the diagnosis, blood samples were taken from the inventor to measure methemoglobin levels. […] A normal methemoglobin fraction is about 1%. […] Accordingly, no methemoglobin treatment (e.g., intravenous administration of methylene blue) was administered to the inventor.

[2] = cited from earlier work
[3] = Inventor exposed to NO levels higher than 25 ppm during development, SpO2 oximeter; format: in vivo, human
From the text: In fact, the inventor's oxygenation levels as measured by SpO2 oximeter were always in the 97-100 range. Accordingly, also disclosed herein are methods of preventing the onset of methemoglobinemia from nitrate, nitrite, or NO exposure, wherein the method comprising administering hydrogen to the subject exposed to a source of nitrate, a source of nitrite, or NO.

[4] = cited from earlier work; remark: listed apart in the source
[5] = cited from earlier work; remark: listed apart in the source
[6] = system: subject with respiratory illness

[HH] [H2 gas, hydrogen]
increase in relative humidity (for every about 40 ppm increase in H2 concentration, 30 C): 1%
H2 concentration shown safe (no symptoms of water in the lungs) (sensor limit 1000 ppm): 1000 ppm
methemoglobin in blood samples ([1]; at SpO2 of 45%, after H2 inhalation and 2000 mg elemental magnesium powder): no methemoglobin was detected
minor methemoglobinemia caused by inhalation of NO gas ([1]; other experiments, SpO2 returning to normal): reversed

[O]N=O [NO2, nitrogen dioxide]
permissible exposure limit in homes and offices ([2]; OSHA, 9 mg/m^3): ≤ 5 ppm
concentration that can trigger symptoms in asthmatic people ([2]; OSHA): 2 ppm
concentration that starts to damage the lungs ([2]; OSHA): 5 ppm
levels shown to cause respiratory discomfort in vulnerable populations ([2]; asthmatics): ≥ 0.1 ppm
concentration that can kill a human ([2]; exposed for about an hour): 100 ppm

[N]=O [NO, nitric oxide]
SpO2 one day after exposure to high ambient NO ([1]; ambient NO >80 ppm): 85%
SpO2 recorded in the emergency room later that night ([1]; ambient NO >80 ppm, after prolonged H2 inhalation): 45%
outright toxic concentration ([2]; in vivo): ≥ 100 ppm
ill effects ([3]; NO levels higher than 25 ppm): no ill effects
oxygenation levels by SpO2 oximeter ([3]; exposed multiple times to NO levels higher than 25 ppm): 97-100

O=NO [Sodium nitrite]
methemoglobin level ([4]; 600 mg to an adult for cyanide toxicity, van Heijst et al.): 58%
lowest calculated lethal dose ([4]; Katabami et al.): 2.6 grams
dose in a reported case of severe methemoglobinemia ([4]; in vivo): about 70 mg

O=[N+]([O-])O [nitrate alone]
oxygen saturation ([5]; 409 mg and 479 mg doses, Rosetti et al., Barlow et al.): failed to produce any increase in oxygen saturation

O=[N+]([O-])[O-].[K+] [potassium nitrate]
lower blood oxygen saturation versus the placebo ([5]; hypoxic conditions, Schiffer et al.): about 3%
other symptoms (weakness, coughing) ([6]; human, in vivo): no attenuation of their other symptoms
SpO2 for up to 4 hours after administration ([6]; person): showed no signs of increase
SpO2 15 minutes after administration ([6]; person, baseline 93%): 93%

O=[N+]([O-])[O-].[Na+] [sodium nitrate]
oxygen consumption during exercise ([5]; Larsen et al., Bailey et al.): reduce oxygen consumption during exercise
